# Where two headings read alike, the source gives them in different places.
# Test system: HCV genotype 1b replicon in Huh 7 cells
# Assay: HCV replicon assay (1b_Huh-Luc/Neo-ET cell line, luciferase readout)
# Assay type: cell-based
# Details: Hepatitis C virus, read-out: Inhibition of HCV genotype 1b
# Summary of the method: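 Replicon level was read as luciferase signal after 72 h compound exposure, triplicate wells, starting the day after cells were plated. Cell line: 1b_Huh-Luc/Neo-ET. Values normalised to control as percent, and EC50 fitted with a variable-slope sigmoid; determinations repeated.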
# [1] = Table 1, genotype 1b replicon, Huh 7 cells, 72 h, luciferase
# [2] = Table 2, genotype 1b replicon, Huh 7 cells, 72 h, luciferase
compound,measurement,setting,value
COC(=O)N[C@H](C(=O)N1CCC[C@H]1c1ncc(-c2ccc(-c3ccc4cc(-c5c[nH]c([C@@H]6CCCN6C(=O)[C@H](NC(=O)OC(C)(C)C)c6ccccc6)n5)ccc4n3)cn2)[nH]1)C(C)C [compound 70],EC50,[1],< 1 nM
COC(=O)N[C@H](C(=O)N1CCC[C@H]1c1ncc(-c2ccc3nc(-c4ccc5c(c4)CCc4nc([C@@H]6CCCN6C(=O)[C@@H](NC(=O)OC)C(C)C)[nH]c4-5)ccc3c2)[nH]1)C(C)C [292-1],EC50,[1],< 1 nM
COC(=O)N[C@H](C(=O)N1CCC[C@H]1c1ncc(-c2ccc3cc(-c4ccc(-c5cnc([C@@H]6CCCN6C(=O)[C@H](NC(=O)OC)c6cccs6)[nH]5)cc4)ccc3c2)[nH]1)C(C)C [compound 497],EC50,"Huh-7, HCV 1b replicon",< 1 nM
COC(=O)N[C@H](C(=O)N1CCC[C@H]1c1ncc(-c2ccc3cc(-c4ccc(-c5cnc([C@@H]6CCCN6C(=O)[C@H](NC(=O)OC)c6ccccc6)[nH]5)nn4)ccc3c2)[nH]1)C(C)C [compound 461],EC50,"Huh-7, HCV 1b replicon",< 1 nM
COC(=O)N[C@H](C(=O)N1CCC[C@H]1c1nc(-c2ccc3nc(-c4ccc(-c5cnc([C@@H]6CCCN6C(=O)[C@H](NC(=O)NC6CC6)c6ccccc6)[nH]5)cc4)ccc3c2)c[nH]1)C(C)C [compound 34],EC50,[1],< 1 nM
COC(=O)N[C@H](C(=O)N1CCC[C@H]1c1ncc(-c2ccc3nc(-c4ccc5nc([C@@H]6CCCN6C(=O)[C@@H](NC(=O)OC)C6CC6)[nH]c5c4)ccc3c2)[nH]1)C1CC1 [compound 385],EC50,[2],< 1 nM
COC(=O)N[C@H](C(=O)N1CCC[C@H]1c1nc(-c2cnc3cc(-c4ccc(-c5cnc([C@@H]6CCCN6C(=O)[C@@H](NC(=O)OC)C(C)C)[nH]5)nc4)ccc3c2)c[nH]1)C(C)C [compound 93],EC50,[1],< 1 nM
COC(=O)N[C@H](C(=O)N1CCCC[C@H]1c1ncc(-c2ccc(-c3nc4ccc(-c5cnc([C@@H]6CCCCN6C(=O)[C@@H](NC(=O)OC)C(C)C)[nH]5)cc4s3)cc2)[nH]1)C(C)C [compound 243],EC50,[1],< 1 nM
COC(=O)N[C@@H](C)C(=O)N1CCC[C@H]1c1ncc(-c2ccc3cc(-c4ccc(-c5cnc([C@@H]6CCCN6C(=O)[C@H](NC(=O)OC)c6cccs6)[nH]5)cc4)ccc3c2)[nH]1 [compound 502],EC50,"Huh-7, HCV 1b replicon",< 1 nM
COC(=O)N[C@H](C(=O)N1CCC[C@H]1c1ncc(-c2ccc3nc(-c4ccc5c(ccc6nc([C@@H]7CCCN7C(=O)[C@@H](NC(=O)OC)C(C)C)[nH]c65)c4)ccc3c2)[nH]1)C(C)C [compound 296],EC50,[1],< 1 nM
COC(=O)N[C@H](C(=O)N1CCC[C@H]1c1nc(-c2ccc3nc(-c4ccc(-c5cnc([C@@H]6CCCN6C(=O)[C@H](NC(=O)OC(C)(C)C)c6ccccc6)[nH]5)cc4)ccc3c2)c[nH]1)C(C)C [compound 30],EC50,[1],< 1 nM
COC(=O)N[C@H](C(=O)N1CCC[C@H]1c1nc2ccc(-c3ccc4cc(-c5cnc([C@@H]6CCCN6C(=O)[C@@H](c6ccccc6)N6CCCC6)[nH]5)ccc4c3)cc2[nH]1)C(C)C [compound 178],EC50,[1],< 1 nM
COC(=O)N[C@H](C(=O)N1CCC[C@H]1c1nc(-c2ccc3cc(-c4ccc(-c5cnc([C@@H]6CCCN6C(=O)[C@@H](NC(=O)OC)[C@@H](C)OC)[nH]5)cc4)ccc3c2)c[nH]1)[C@@H](C)OC [compound 3],EC50,[1],< 1 nM
COC(=O)N[C@H](C(=O)N1CCC[C@H]1c1ncc(-c2ccc3cc(-c4ccc5nc([C@@H]6CCCN6C(=O)[C@@H](NC(=O)OC)C6CCOCC6)[nH]c5n4)ccc3c2)[nH]1)C(C)C [compound 202],EC50,[1],< 1 nM
COC(=O)N[C@H](C(=O)N1CCOC[C@H]1c1ncc(-c2ccc3cc(-c4ccc(-c5cnc([C@@H]6CCCN6C(=O)[C@H](NC(=O)OC)c6ccccc6)[nH]5)cc4)ccc3c2)[nH]1)[C@@H](C)OC [compound 327],EC50,[2],< 1 nM
COC(=O)N[C@H](C(=O)N1CCC[C@H]1c1ncc(-c2ccc3cc(-c4ccc(-c5cnc([C@@H]6CCCN6C(=O)[C@@H](NC(=O)OC)C(C)C)[nH]5)nn4)ccc3c2)[nH]1)C(C)C [compound 312],EC50,[2],< 1 nM
COC(=O)N[C@H](C(=O)N1CCC[C@H]1c1ncc(-c2ccc3nc(-c4ccc5nc([C@@H]6CCCN6C(=O)[C@@H](NC(=O)OC)C6CCCCC6)[nH]c5c4)ccc3c2)[nH]1)C1CCCCC1 [compound 388],EC50,[2],< 1 nM
COC(=O)N[C@H](C(=O)N1CCC[C@H]1c1ncc(-c2ccc3cc(-c4ccc(-c5cnc([C@@H]6CCCN6C(=O)[C@H](NC(=O)OC)c6ccsc6)[nH]5)cc4)ccc3c2)[nH]1)C(C)C [compound 466],EC50,"Huh-7, HCV 1b replicon",< 1 nM
COC(=O)N[C@H](C(=O)N1CCC[C@H]1c1ncc(-c2ccc3nc(-c4ccc(-c5cnc([C@@H]6CCCN6C(=O)[C@H](NC(=O)OC)c6ccccc6)[nH]5)cc4)ccc3c2)[nH]1)[C@@H](C)O [compound 490],EC50,"Huh-7, HCV 1b replicon",< 1 nM
COC(=O)N[C@H](C(=O)N1CCC[C@H]1c1ncc(-c2ccc(-c3nc4cc(-c5cnc([C@@H]6CCCN6C(=O)[C@@H](NC(=O)OC)C(C)C)[nH]5)ccc4s3)cc2)[nH]1)C(C)C [compound 240],EC50,[1],< 1 nM
COC(=O)N[C@@H](C)C(=O)N1CCC[C@H]1c1ncc(-c2ccc3cc(-c4ccc(-c5cnc([C@@H]6CCCN6C(=O)[C@H](NC(=O)OC)c6ccccc6)[nH]5)cc4)ccc3c2)[nH]1 [compound 319],EC50,[2],< 1 nM
COC(=O)N[C@H](C(=O)N1CCC[C@H]1c1ncc(-c2ccc3nc(-c4ccc(-c5cnc([C@@H]6CCCN6C(=O)[C@H](NC(=O)OC)c6ccccc6)[nH]5)cc4)oc3c2)[nH]1)C(C)C [compound 255],EC50,[1],< 1 nM
COC(=O)N[C@H](C(=O)N1CCC[C@H]1c1nc(-c2ccc3nc(N4CCC(c5cnc([C@@H]6CCCN6C(=O)[C@@H](NC(=O)OC)C(C)C)[nH]5)CC4)ccc3c2)c[nH]1)C(C)C [compound 275],EC50,[1],< 1 nM
COC(=O)N[C@H](C(=O)N1CCC[C@H]1c1ncc(-c2ccc3cc(-c4ccc5nc([C@@H]6CCCN6C(=O)[C@@H](NC(=O)OC)C6CCOCC6)[nH]c5c4)nnc3c2)[nH]1)C1CCOCC1 [compound 531],EC50,"Huh-7, HCV 1b replicon",< 1 nM
COC(=O)N[C@H](C(=O)N1CCC[C@H]1c1ncc(-c2ccc3cc(-c4ccc(-c5cnc([C@@H]6CCCN6C(=O)[C@H](NC(=O)OC)c6ccsc6)[nH]5)cc4)ccc3c2)[nH]1)[C@@H](C)OC [330-1],EC50,[2],< 1 nM
COC(=O)N[C@H](C(=O)N1CCC[C@H]1c1nc2ccc(-c3cccc4c(-c5ccc6nc([C@@H]7CCCN7C(=O)[C@@H](NC(=O)OC)C(C)C)[nH]c6c5)cccc34)cc2[nH]1)C(C)C [compound 277],EC50,[1],< 1 nM
COC(=O)N[C@H](C(=O)N1CCC[C@H]1c1ncc(-c2ccc(-c3cc4ccc(-c5cnc([C@@H]6CCCN6C(=O)[C@@H](NC(=O)OC)C6CCOCC6)[nH]5)cc4cn3)c(F)c2)[nH]1)C(C)C [compound 166],EC50,[1],< 1 nM
COC(=O)N[C@H](C(=O)N1CCC[C@H]1c1ncc(-c2ccc(-c3nc4ccc(-c5cnc([C@@H]6CCCN6C(=O)[C@@H](NC(=O)OC)C(C)C)[nH]5)cc4o3)cc2)[nH]1)C(C)C [compound 234],EC50,[1],< 1 nM
COC(=O)N[C@H](C(=O)N1CCC[C@H]1c1ncc(-c2ccc3cc(-c4ccc5nc([C@@H]6CCCN6C(=O)[C@@H](NC(=O)OC)C6CCOCC6)[nH]c5c4)ncc3c2)[nH]1)C(C)C [compound 219],EC50,[1],< 1 nM
COC(=O)N[C@H](C(=O)N1CCC[C@H]1c1ncc(-c2ccc(-c3ccc4cc(-c5c[nH]c([C@@H]6CCCN6C(=O)[C@H](NC(=O)OC(C)(C)C)c6ccccc6)n5)ccc4n3)cc2)[nH]1)C(C)C [compound 35],EC50,[1],< 1 nM
CC[C@@H](C)[C@H](NC(=O)OC)C(=O)N1CCC[C@H]1c1ncc(-c2ccc(-c3ccc4cc(-c5cnc([C@@H]6CCCN6C(=O)[C@@H](NC(=O)OC)[C@H](C)CC)[nH]5)ccc4c3)cc2)[nH]1 [compound 142],EC50,[1],< 1 nM
COC(=O)N[C@H](C(=O)N1CCC[C@H]1c1nc2ccc(-c3ccc4cc(-c5ccc6nc([C@@H]7CCCN7C(=O)[C@@H](NC(=O)OC)C7CCOCC7)[nH]c6n5)ccc4c3)nc2[nH]1)C1CCOCC1 [compound 284],EC50,[1],1 to 9.9 nM
COC(=O)N[C@@H](C(=O)N1CCC[C@H]1c1nc(-c2ccc3cc(-c4ccc(-c5cnc([C@@H]6CCCN6C(=O)[C@H](NC(=O)OC)C(C)C)[nH]5)cc4)ccc3c2)c[nH]1)C(C)C [compound 2],EC50,[1],1 to 9.9 nM
COC(=O)N[C@H](C(=O)N1CCC[C@H]1c1nc2c([nH]1)-c1ccc(-c3ccc4cc(-c5cnc([C@@H]6CCCN6C(=O)[C@H](NC(=O)OC)c6ccccc6)[nH]5)ccc4n3)cc1CCC2)C(C)C [compound 539],EC50,"Huh-7, HCV 1b replicon",< 1 nM
COC(=O)N[C@H](C(=O)N1CCC[C@H]1c1ncc(-c2ccc(-c3ccc4cc(-c5c[nH]c([C@@H]6CCCN6C(=O)[C@@H](NC(=O)OC)[C@@H](C)OC)n5)ccc4n3)cc2)[nH]1)C(C)C [compound 40],EC50,[1],< 1 nM
COC(=O)N[C@@H](C(=O)N1CCC[C@H]1c1ncc(-c2ccc3cc(-c4ccc5nc([C@@H]6CCCN6C(=O)[C@H](NC(=O)OC)C6=CCC=CC6)[nH]c5n4)ccc3c2)[nH]1)C1=CCC=CC1 [compound 523],EC50,"Huh-7, HCV 1b replicon",< 1 nM
CC(C)(C)OC(=O)N1CCCC1c1ncc(C23CCC(c4ccc5cc(-c6c[nH]c([C@@H]7CCCN7C(=O)OC(C)(C)C)n6)ccc5n4)(CC2)CC3)[nH]1 (some centres unmarked) [compound 268],EC50,[1],10 to 999 nM
COC(=O)N[C@H](C(=O)N1CCC[C@H]1c1nc(-c2ccc3nc(-c4ccc(-c5cnc([C@@H]6CCCN6C(=O)[C@@H](NC(=O)OC)C(C)C)[nH]5)cc4)cc(OC)c3c2)c[nH]1)C(C)C [compound 79],EC50,[1],< 1 nM
COC(=O)N[C@H](C(=O)N1CCC[C@H]1C(=O)N[C@H](C)c1ccc(-c2ccc3cc(-c4cnc([C@@H]5CCCN5C(=O)[C@@H](NC(=O)OC)C(C)C)[nH]4)ccc3c2)cc1)C(C)C [compound 561],EC50,"Huh-7, HCV 1b replicon",10 to 999 nM
COC(=O)N[C@H](C(=O)N1CCC[C@H]1c1ncc(-c2ccc3cc(-c4ccc(-c5cnc([C@@H]6COCCN6C(=O)[C@H](NC(=O)OC)c6ccccc6)[nH]5)cc4)ccc3c2)[nH]1)C(C)C [compound 131],EC50,[1],< 1 nM
COC(=O)N[C@H](C(=O)N1CCC[C@H]1c1ncc(-c2ccc(-c3nc4ccc(-c5cnc([C@@H]6CCCN6C(=O)OCc6ccccc6)[nH]5)cc4s3)cc2)[nH]1)C(C)C [compound 246],EC50,[1],< 1 nM
